Paper PMC7932555, “A diffusible signal factor of the intestine dictates Salmonella invasion through its direct control of the virulence activator HilD” (PLoS Pathogens, 2021)
Positions count from the first letter of the chain named.

Tests used:
HilD [1] = target: T1, HilD (Salmonella typhimurium, UniProt P0CL08, K43A); assay: HilD half-life (degradation) assay by western blot; format: cell-based; conditions: HilD K43A-3XFLAG; 20 μM fatty acid
T1 construct: hilD with a C-terminal 3XFLAG tag was cloned into pWSK29 under control of the tetRA promoter; expressed in transfected cells; host or cells: Salmonella Typhimurium strain carrying pWSK29-PtetRA-hilD-3XFLAG (background with chromosomal hilD, hilC and rtsA null)
T1 sequence (P0CL08 1-309 K43A): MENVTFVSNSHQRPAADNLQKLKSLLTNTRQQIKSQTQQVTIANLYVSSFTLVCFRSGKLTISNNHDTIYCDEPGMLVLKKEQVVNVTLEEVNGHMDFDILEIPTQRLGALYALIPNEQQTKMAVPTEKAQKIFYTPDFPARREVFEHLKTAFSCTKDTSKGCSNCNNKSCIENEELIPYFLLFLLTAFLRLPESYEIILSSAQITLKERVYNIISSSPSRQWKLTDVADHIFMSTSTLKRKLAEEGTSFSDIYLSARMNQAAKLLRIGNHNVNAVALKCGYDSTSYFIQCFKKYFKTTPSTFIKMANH
Protocol: (§1) The HilD half-life was assessed as previously described. Salmonella strains having plasmids with tetracycline-inducible hilD or its mutated sequence with a C-terminal 3XFLAG tag and a sipB::lacZ fusion (for invasion gene expression assessment) were grown overnight and then diluted 1:100 into LB buffered with 100 mM MOPS (pH 6.7) with appropriate antibiotics and fatty acids or control solvents. After 2 hours of growth, aliquots were collected to quantitate sipB::lacZ expression in a β-galactosidase assay. Individual cultures were then equilibrated to an OD600 of 1.0 to ensure equal density at the half-life assay beginning point. New protein production was halted by addition of a cocktail of antibiotics (rifampin, streptomycin and spectinomycin). These cultures were incubated at 37°C and aliquots were collected every 30 minutes for 2 hours. Samples were lysed in 5X sample buffer, boiled, and immunoblotted with an anti-FLAG antibody to monitor HilD.

HilD [2] = target: T2, HilD (Salmonella typhimurium, UniProt P0CL08, N44A); assay: HilD half-life (degradation) assay by western blot; format: cell-based; conditions: HilD N44A-3XFLAG; 20 μM fatty acid
T2 construct: hilD with a C-terminal 3XFLAG tag was cloned into pWSK29 under control of the tetRA promoter; expressed in transfected cells; host or cells: Salmonella Typhimurium strain carrying pWSK29-PtetRA-hilD-3XFLAG (background with chromosomal hilD, hilC and rtsA null)
T2 sequence (P0CL08 1-309 N44A): T1 sequence (P0CL08 1-309 K43A) with A43K, N44A
Protocol: as §1

HilD [3] = target: T3, HilD (Salmonella typhimurium, UniProt P0CL08, Q290A); assay: HilD half-life (degradation) assay by western blot; format: cell-based; conditions: HilD Q290A-3XFLAG; 20 μM fatty acid
T3 construct: hilD with a C-terminal 3XFLAG tag was cloned into pWSK29 under control of the tetRA promoter; expressed in transfected cells; host or cells: Salmonella Typhimurium strain carrying pWSK29-PtetRA-hilD-3XFLAG (background with chromosomal hilD, hilC and rtsA null)
T3 sequence (P0CL08 1-309 Q290A): T1 sequence (P0CL08 1-309 K43A) with A43K, Q290A
Protocol: as §1

HilD^Q290A = target: T4, HilD^Q290A (Salmonella typhimurium, UniProt P0CL08, Q290A); assay: EMSA of hilA promoter DNA with HilD Q290A; format: biochemical; conditions: 10 nM hilA promoter DNA, 30 μM fatty acid
T4 construct: made in house; host or cells: E. coli BL21 (DE3)
T4 sequence (P0CL08 1-309 Q290A): T1 sequence (P0CL08 1-309 K43A) with A43K, Q290A
Protocol: These were performed as previously described. Briefly, 10 nM hilA promoter DNA (-286 to +31) was mixed with 150 nM HilD in a binding buffer (100 mM Tris pH 7.5, 10 mM EDTA, 1M KCl, 1 mM DTT, 50% v/v glycerol). Fatty acids or control solvents were added at various concentrations. Binding reaction was performed at room temperature for 1 hour. Dye solution was added to final concentration of 1X and samples were separated on 10% acrylamide gels. DNA was stained using SYBR Safe and visualized in BioRad GelDoc imaging system.

Row | Structure (SMILES) | HilD degradation (HilD [1]) | HilD degradation (HilD [2]) | HilD degradation (HilD [3]) | effect on HilD binding to hilA promoter DNA (HilD^Q290A)
1 | CCCCCCCCCCCCC/C=C\C(=O)O [c2-HDA, cis-2-hexadecenoic acid] | degraded as rapidly as wild type HilD | protected from degradation | degraded as rapidly as wild type HilD | –
2 | CCCCCCCCCCCCC/C=C/C(=O)O [t2-HDA, trans-2-hexadecenoic acid] | escaped degradation | escaped degradation | escaped degradation | did not disrupt DNA binding
